Assay results: patent US10954232B2, “Pyrazole derivative as ALK5 inhibitor and uses thereof” (HANMI PHARMACEUTICAL CO., LTD., priority 2016, dated 2021)

Target: T1, ALK5 kinase (Homo sapiens, UniProt P36897)
T1 construct: GST; purchased Thermo Fisher Scientific Solutions
T1 sequence (P36897 34-503): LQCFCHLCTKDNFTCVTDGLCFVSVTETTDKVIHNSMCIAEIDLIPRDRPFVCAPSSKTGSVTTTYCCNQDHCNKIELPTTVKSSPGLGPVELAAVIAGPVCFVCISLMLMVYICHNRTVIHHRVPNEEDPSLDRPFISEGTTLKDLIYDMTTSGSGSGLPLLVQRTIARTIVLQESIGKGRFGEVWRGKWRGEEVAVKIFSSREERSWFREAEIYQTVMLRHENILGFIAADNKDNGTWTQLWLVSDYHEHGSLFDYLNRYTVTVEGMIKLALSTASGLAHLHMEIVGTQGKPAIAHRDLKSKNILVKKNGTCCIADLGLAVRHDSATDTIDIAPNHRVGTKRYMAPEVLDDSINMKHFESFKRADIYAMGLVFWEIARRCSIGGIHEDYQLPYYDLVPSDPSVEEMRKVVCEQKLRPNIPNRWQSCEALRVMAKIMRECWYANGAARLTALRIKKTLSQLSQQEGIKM
Assay: Activity inhibition test on ALK5 enzyme (LanthaScreen Eu binding kinase assay)
Details: kinase tracer 178, 60 minutes at room temperature
Experimental: For each of the compounds obtained in Examples 1 to 227, inhibitory activity against ALK5 kinase was measured.
For this, a LanthaScreen Eu binding kinase assay method was used, and ALK5 kinase, a kinase buffer, a kinase tracer 178, and a LanthaScreen Eu-GST binding antibody were all purchased from Thermo Fisher Scientific Solutions. Each of the compounds was made into a 10 mM DMSO solution, and diluted by 1/10 to a concentration of 1 μM to 0.0001 μM with an aqueous solution containing 4% DMSO. The test was performed in 384 well plates (well polystyrene low volume round-bottomed plates). First, 5 μL of the diluted compound solution was added, then 5 μL of the kinase/antibody mixture solution was introduced thereto, and 5 μL of the tracer was introduced thereto. Herein, these were added to each well so that the final kinase concentration became 5 nM, the final Eu-GST binding antibody concentration 2 nM, and the kinase tracer 178 concentration 10 nM, and the result was reacted in a stirrer for 60 minutes at room temperature. Then a fluorescence value was measured using a fluorescence meter (molecular device) ([…], 665 nm emission filter). Herein, as for the degree of compound activity to inhibit the kinase reaction, a phosphorylate rate was calculated from 0% to 100% with respect to a control group according to the protocol included in the kit, and a 50% inhibitory concentration (IC50) value was calculated by obtaining the x-axis concentration in the region where 50% activity was inhibited.

Row | Compound | IC50 [nM]
1 | Cc1cccc(-n2nc(C(=O)Nc3ccc(N4CCOCC4)cc3)cc2-c2ccc3nccnc3c2)n1 [Example 171, 1-(6-methylpyridin-2-yl)-N-(4-morpholinophenyl)-5-(quinoxalin-6-yl)-1H-pyrazole-3-carboxyamide] | 10 to 100
2 | COc1ccc(NC(=O)c2cc(-c3ccc4nccnc4c3)n(-c3cccc(Br)n3)n2)cc1 [Example 207, 1-(6-bromopyridin-2-yl)-N-(4-methoxyphenyl)-5-(quinoxalin-6-yl)-1H-pyrazole-3-carboxyamide] | 10 to 100
3 | Cc1cccc(-n2nc(C(=O)Nc3ccccc3C)cc2-c2ccc3ncnn3c2)n1 [Example 115, 5-([1,2,4]triazolo[1,5-α]pyridin-6-yl)-1-(6-methylpyridin-2-yl)-N-(o-tolyl)-1H-pyrazole-3-carboxyamide] | 10 to 100
4 | Cc1cccc(-n2nc(C(=O)Nc3cccc(C(F)(F)F)c3)cc2-c2ccc3ncnn3c2)n1 [Example 118, 5-([1,2,4]triazolo[1,5-α]pyridin-6-yl)-1-(6-methylpyridin-2-yl)-N-(3-(trifluoromethyl)phenyl)-1H-pyrazole-3-carboxyamide] | 10 to 100
5 | COc1ccc(NC(=O)c2cc(-c3ccc4nccnc4c3)n(-c3cccc(C(F)(F)F)n3)n2)cc1 [Example 205] | > 100
6 | Cc1cccc(-n2nc(C(=O)Nc3cccc(C(F)(F)F)c3)cc2-c2ccc3ncsc3c2)n1 [Example 21, 5-(benzo[d]thiazol-6-yl)-N-(3-(trifluoromethyl)phenyl)-1-(6-methylpyridin-2-yl)-1H-pyrazole-3-carboxyamide] | ~100
7 | CC(=O)c1cccc(NC(=O)c2cc(-c3ccc4nccnc4c3)n(-c3cccc(C)n3)n2)c1 [Example 179, N-(3-acetylphenyl)-1-(6-methylpyridin-2-yl)-5-(quinoxalin-6-yl)-1H-pyrazole-3-carboxyamide] | < 100
8 | Cc1cccc(-n2nc(C(=O)Nc3cccc(F)c3)cc2-c2ccc3nccnc3c2)n1 [Example 184, N-(3-fluorophenyl)-1-(6-methylpyridin-2-yl)-5-(quinoxalin-6-yl)-1H-pyrazole-3-carboxyamide] | 10 to 100
9 | Cc1cccc(-n2nc(C(=O)Nc3cccc(Cl)c3)cc2-c2ccc3ncsc3c2)n1 [Example 32, 5-(benzo[d]thiazol-6-yl)-N-(3-chlorophenyl)-1-(6-methylpyridin-2-yl)-1H-pyrazole-3-carboxyamide] | 10 to 100
10 | Cc1cccc(-n2nc(C(=O)Nc3ccc(F)cc3F)cc2-c2ccc3ncnn3c2)n1 [Example 134, 5-([1,2,4]triazolo[1,5-α]pyridin-6-yl)-N-(2,4-difluorophenyl)-1-(6-methylpyridin-2-yl)-1H-pyrazole-3-carboxyamide] | 10 to 100
11 | COc1ccc(NC(=O)c2cc(-c3ccc4nccnc4c3)n(-c3cccc(C)n3)n2)cn1 [Example 192, N-(6-methoxypyridin-3-yl)-1-(6-methylpyridin-2-yl)-5-(quinoxalin-6-yl)-1H-pyrazole-3-carboxyamide] | 10 to 100
12 | COc1cccc(CNC(=O)c2cc(-c3ccc4ncnn4c3)n(-c3cccc(C)n3)n2)c1 [Example 158, 5-([1,2,4]triazolo[1,5-α]pyridin-6-yl)-N-(3-methoxybenzyl)-1-(6-methylpyridin-2-yl)-1H-pyrazole-3-carboxyamide] | 10 to 100
13 | COc1cccc(NC(=O)c2cc(-c3ccc4ncnn4c3)n(-c3cccc(C)n3)n2)c1 [Example 91, 5-([1,2,4]triazolo[1,5-α]pyridin-6-yl)-N-(3-methoxyphenyl)-1-(6-methylpyridin-2-yl)-1H-pyrazole-3-carboxyamide] | 10 to 100
14 | Cc1cccc(-n2nc(C(=O)Nc3ccc(N4CCN(C)CC4)cc3)cc2-c2ccc3nccnc3c2)n1 [Example 172, N-(4-(4-methylpiperazin-1-yl)phenyl)-1-(6-methylpyridin-2-yl)-5-(quinoxalin-6-yl)-1H-pyrazole-3-carboxyamide] | 10 to 100
15 | Cc1cccc(-n2nc(C(=O)Nc3cccc(S(C)(=O)=O)n3)cc2-c2ccc3ncsc3c2)n1 [Example 68, 5-(benzo[d]thiazol-6-yl)-1-(6-methylpyridin-2-yl)-N-(6-(methylsulfonyl)pyridin-2-yl)-1H-pyrazole-3-carboxyamide] | 65

The remaining compounds from weak to strong by IC50, led by results:

Row | IC50 [nM] | Compound
16 | 15 | Cc1cccc(-n2nc(C(=O)Nc3cccc([S+](C)[O-])c3)cc2-c2ccc3ncnn3c2)n1 (stereo not drawn) [Example 145, 5-([1,2,4]triazolo[1,5-α]pyridin-6-yl)-N-(3-(methylsulfinyl)phenyl)-1-(6-methylpyridin-2-yl)-1H-pyrazole-3-carboxyamide]
17 | 14 | Cc1cccc(-n2nc(C(=O)Nc3ccc(N4CC5CCCNC5C4)c(Cl)c3)cc2-c2ccc3ncsc3c2)n1 (centres unmarked) [Example 17, 5-(benzo[d]thiazol-6-yl)-N-(3-chloro-4-(octahydro-6H-pyrrolo[3,4-b]pyridin-6-yl)phenyl)-1-(6-methylpyridin-2-yl)-1H-pyrazole-3-carboxyamide]
18 | 11 | Cc1cccc(-n2nc(C(=O)Nc3ccc(OCc4ccccc4)cc3)cc2-c2ccc3ncsc3c2)n1 [Example 6, 5-(benzo[d]thiazol-6-yl)-N-(4-(benzyloxy)phenyl)-1-(6-methylpyridin-2-yl)-1H-pyrazole-3-carboxyamide]
19 | ~10 | COc1ccc(NC(=O)c2cc(-c3ccc4ncnn4c3)n(-c3cccc(C)n3)n2)cn1 [Example 154, 5-([1,2,4]triazolo[1,5-α]pyridin-6-yl)-N-(6-methoxypyridin-3-yl)-1-(6-methylpyridin-2-yl)-1H-pyrazole-3-carboxyamide]
20 | ~10 | Cc1cccc(-n2nc(C(=O)Nc3ccc(Br)cc3)cc2-c2ccc3ncnn3c2)n1 [Example 132, 5-([1,2,4]triazolo[1,5-α]pyridin-6-yl)-N-(4-bromophenyl)-1-(6-methylpyridin-2-yl)-1H-pyrazole-3-carboxyamide]
21 | 8.3 | Cc1cccc(-n2nc(C(=O)Nc3ccc(S(N)(=O)=O)cc3)cc2-c2ccc3ncnn3c2)n1 [Example 148, 5-([1,2,4]triazolo[1,5-α]pyridin-6-yl)-N-(4-sulfamoylphenyl)-1-(6-methylpyridin-2-yl)-1H-pyrazole-3-carboxyamide]
22 | 8 | Cc1cccc(-n2nc(C(=O)Nc3ccc(F)nc3)cc2-c2ccc3ncsc3c2)n1 [Example 71, 5-(benzo[d]thiazol-6-yl)-N-(6-fluoropyridin-3-yl)-1-(6-methylpyridin-2-yl)-1H-pyrazole-3-carboxyamide]
23 | 7.2 | Cc1cccc(-n2nc(C(=O)NCc3ccccc3F)cc2-c2ccc3ncsc3c2)n1 [Example 77, 5-(benzo[d]thiazol-6-yl)-N-(2-fluorobenzyl)-1-(6-methylpyridin-2-yl)-1H-pyrazole-3-carboxyamide]
24 | 6.1 | CNc1cccc(NC(=O)c2cc(-c3ccc4ncsc4c3)n(-c3cccc(C)n3)n2)c1 [Example 12, 5-(benzo[d]thiazol-6-yl)-N-(3-(methylamino)phenyl)-1-(6-methylpyridin-2-yl)-1H-pyrazole-3-carboxyamide]
25 | 4.6 | 5-([1,2,4]triazolo[1,5-α]pyridin-6-yl)-N-(1-cyclopropyl sulfonyl)-1H-pyrazol-4-yl)-1-(6-methylpyridin-2-yl)-1H-pyrazole-3-carboxyamide [Example 163]
26 | 3.9 | Cc1cccc(-n2nc(C(=O)Nc3cccc(CO)c3)cc2-c2ccc3ncsc3c2)n1 [Example 84, 5-(benzo[d]thiazol-6-yl)-N-(3-(hydroxymethyl)phenyl)-1-(6-methylpyridin-2-yl)-1H-pyrazole-3-carboxyamide]
27 | 3.4 | Cc1cccc(-n2nc(C(=O)NCc3cccc(F)c3)cc2-c2ccc3ncsc3c2)n1 [Example 78, 5-(benzo[d]thiazol-6-yl)-N-(3-fluorobenzyl)-1-(6-methylpyridin-2-yl)-1H-pyrazole-3-carboxyamide]
28 | 3.3 | Cc1cccc(-n2nc(C(=O)Nc3cccc(S(C)(=O)=O)c3)cc2-c2ccc3ncsc3c2)n1 [Example 40, 5-(benzo[d]thiazol-6-yl)-1-(6-methylpyridin-2-yl)-N-(3-(methylsulfonyl)phenyl)-1H-pyrazole-3-carboxyamide]
29 | 2.3 | Cc1cccc(-n2nc(C(=O)Nc3ccc(N4CC[C@H](N(C)C)C4)cc3)cc2-c2ccc3ncsc3c2)n1 [Example 16, 5-(benzo[d]thiazol-6-yl)-N-(4-(3-(dimethylamino)pyrrolidin-1-yl)phenyl)-1-(6-methylpyridin-2-yl)-1H-pyrazole-3-carboxyamide]
